Measurements reported in PubChem BioAssay AID1963849 (Molecular Pharmacology Branch, DTP, NCI, 2024).

System: 299254-011-R-J1-PDC complex spheroid viability
Assay: Anticancer human tumor 299254-011-R-J1-PDC patient-derived melanoma cell line growth inhibition [POLQ]
Conditions: for IC50: curve of first compound; for viability, T/C: stronger effect = lower value; active = viability on the fitted dose curve at most 10% of control; inactive = the rest
In short: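 PDC + HUVEC + MSC complex spheroids; POLQ inhibitors ± partner drugs; top conc. at/near clinical Cmax, else 10 microM (SN-38 1 microM), half-log dilutions; 37 degrees C, 5% CO2.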

[1] = second compound 0.0316 µM, first compound 0.0316 µM
[2] = second compound 0.0316 µM, first compound 0.1 µM
[3] = second compound 0.0316 µM, first compound 0.316 µM
[4] = second compound 0.0316 µM, first compound 1 µM
[5] = second compound 0.0316 µM, first compound 3.16 µM
[6] = second compound 0.0316 µM, first compound 10 µM
[7] = second compound 0.1 µM, first compound 0.0316 µM
[8] = second compound 0.1 µM, first compound 0.1 µM
[9] = second compound 0.1 µM, first compound 0.316 µM
[10] = second compound 0.1 µM, first compound 1 µM
[11] = second compound 0.1 µM, first compound 3.16 µM
[12] = second compound 0.1 µM, first compound 10 µM
[13] = second compound 0.316 µM, first compound 0.0316 µM
[14] = second compound 0.316 µM, first compound 0.1 µM
[15] = second compound 0.316 µM, first compound 0.316 µM
[16] = second compound 0.316 µM, first compound 1 µM
[17] = second compound 0.316 µM, first compound 3.16 µM
[18] = second compound 0.316 µM, first compound 10 µM
[19] = second compound 1 µM, first compound 0.0316 µM
[20] = second compound 1 µM, first compound 0.1 µM
[21] = second compound 1 µM, first compound 0.316 µM
[22] = second compound 1 µM, first compound 1 µM
[23] = second compound 1 µM, first compound 3.16 µM
[24] = second compound 1 µM, first compound 10 µM
[25] = second compound 3.16 µM, first compound 0.0316 µM
[26] = second compound 3.16 µM, first compound 0.1 µM
[27] = second compound 3.16 µM, first compound 0.316 µM
[28] = second compound 3.16 µM, first compound 1 µM
[29] = second compound 3.16 µM, first compound 3.16 µM
[30] = second compound 3.16 µM, first compound 10 µM
[31] = second compound 10 µM, first compound 0.0316 µM
[32] = second compound 10 µM, first compound 0.1 µM
[33] = second compound 10 µM, first compound 0.316 µM
[34] = second compound 10 µM, first compound 1 µM
[35] = second compound 10 µM, first compound 3.16 µM
[36] = second compound 10 µM, first compound 10 µM
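Also: spheroids exposed to drugs for one week before measurement.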
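For viability, T/C in this document: percent viability relative to DMSO vehicle control taken as 100%.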

COc1cc(C2c3cc4c(cc3C(OC3OC5COC(C)OC5C(O)C3O)C3COC(=O)C23)OCO4)cc(OC)c1O (stereo unspecified) + Cc1cccc(N(C)C(=O)C2C(O)CCN2c2nc(C)cc(C(F)(F)F)c2C#N)c1
inactive: viability, T/C [1] 87.6% | viability, T/C [2] 89.2% | viability, T/C [3] 102% | viability, T/C [4] 86.8% | viability, T/C [5] 75.6% | viability, T/C [6] 48.9% | viability, T/C [7] 98% | viability, T/C [8] 91.9% | viability, T/C [9] 107% | viability, T/C [10] 87.2% | viability, T/C [11] 68% | viability, T/C [12] 54.8% | viability, T/C [13] 94.6% | viability, T/C [14] 102% | viability, T/C [15] 101% | viability, T/C [16] 99.5% | viability, T/C [17] 70% | viability, T/C [18] 59.5% | viability, T/C [19] 107% | viability, T/C [20] 93.1% | viability, T/C [21] 91.6% | viability, T/C [22] 79.2% | viability, T/C [23] 76% | viability, T/C [24] 58% | viability, T/C [25] 98.5% | viability, T/C [26] 86.5% | viability, T/C [27] 88% | viability, T/C [28] 97.3% | viability, T/C [29] 74.8% | viability, T/C [30] 53.9% | viability, T/C [31] 84.5% | viability, T/C [32] 86.7% | viability, T/C [33] 86.1% | viability, T/C [34] 82.8% | viability, T/C [35] 60.2% | viability, T/C [36] 59.2%
> 10000 nM: IC50 (second compound 0.1 µM) | IC50 (second compound 0.316 µM) | IC50 (second compound 1 µM) | IC50 (second compound 3.16 µM) | IC50 (second compound 10 µM)
9540 nM: IC50 (second compound 0.0316 µM)

Nc1ccn(C2OC(CO)C(O)C2(F)F)c(=O)n1 (stereo unspecified) + Nc1ccc(C#CCN(C(=O)Cc2ncc(C(F)(F)F)cc2C(F)(F)F)c2ccc(F)cc2)nn1
82.7 nM: IC50 (second compound 0.316 µM)
252 nM: IC50 (second compound 1 µM)
277 nM: IC50 (second compound 10 µM)
144 nM: IC50 (second compound 3.16 µM)
123 nM: IC50 (second compound 0.0316 µM)
inactive: viability, T/C [1] 71.9% | viability, T/C [2] 54.2% | viability, T/C [3] 33.7% | viability, T/C [4] 50.7% | viability, T/C [5] 51.7% | viability, T/C [6] 47.1% | viability, T/C [7] 60.7% | viability, T/C [8] 54.7% | viability, T/C [9] 49.6% | viability, T/C [10] 48.5% | viability, T/C [11] 46% | viability, T/C [12] 46.9% | viability, T/C [13] 90% | viability, T/C [14] 41.4% | viability, T/C [15] 49.6% | viability, T/C [16] 37.7% | viability, T/C [17] 43.7% | viability, T/C [18] 38.2% | viability, T/C [19] 86.2% | viability, T/C [20] 69.2% | viability, T/C [21] 45.1% | viability, T/C [22] 45.7% | viability, T/C [23] 48% | viability, T/C [24] 36.4% | viability, T/C [25] 73.7% | viability, T/C [26] 51.5% | viability, T/C [27] 47% | viability, T/C [28] 42.1% | viability, T/C [29] 37.7% | viability, T/C [30] 43.5% | viability, T/C [31] 80% | viability, T/C [32] 91.5% | viability, T/C [33] 45.4% | viability, T/C [34] 36.9% | viability, T/C [35] 39.7% | viability, T/C [36] 45%
351 nM: IC50 (second compound 0.1 µM)

COc1cccc(OCCCN)c1-c1cc(Nc2cnc(C#N)cn2)n[nH]1 + COC1C(OC(N)=O)C(O)C(Oc2ccc3c(O)c(NC(=O)c4ccc(O)c(CC=C(C)C)c4)c(=O)oc3c2C)OC1(C)C
111 nM: IC50 (second compound 0.316 µM)
84.5 nM: IC50 (second compound 3.16 µM)
65.1 nM: IC50 (second compound 0.0316 µM)
inactive: viability, T/C (second compound 0.0316 µM, first compound 0.00316 µM) 99.5% | viability, T/C (second compound 0.0316 µM, first compound 0.01 µM) 94.9% | viability, T/C [1] 58.7% | viability, T/C [2] 49.6% | viability, T/C [3] 41.6% | viability, T/C [4] 38.1% | viability, T/C (second compound 0.1 µM, first compound 0.00316 µM) 94.2% | viability, T/C (second compound 0.1 µM, first compound 0.01 µM) 98.6% | viability, T/C [7] 72% | viability, T/C [8] 53.9% | viability, T/C [9] 41.1% | viability, T/C [10] 38% | viability, T/C (second compound 0.316 µM, first compound 0.00316 µM) 105% | viability, T/C (second compound 0.316 µM, first compound 0.01 µM) 102% | viability, T/C [13] 74.5% | viability, T/C [14] 52.4% | viability, T/C [15] 42.1% | viability, T/C [16] 39.6% | viability, T/C (second compound 1 µM, first compound 0.00316 µM) 114% | viability, T/C (second compound 1 µM, first compound 0.01 µM) 89.2% | viability, T/C [19] 74.2% | viability, T/C [20] 56.8% | viability, T/C [21] 43.8% | viability, T/C [22] 39.9% | viability, T/C (second compound 3.16 µM, first compound 0.00316 µM) 99.5% | viability, T/C (second compound 3.16 µM, first compound 0.01 µM) 105% | viability, T/C [25] 65.7% | viability, T/C [26] 55.1% | viability, T/C [27] 38.3% | viability, T/C [28] 48.6% | viability, T/C (second compound 10 µM, first compound 0.00316 µM) 105% | viability, T/C (second compound 10 µM, first compound 0.01 µM) 104% | viability, T/C [31] 67.7% | viability, T/C [32] 56.9% | viability, T/C [33] 49% | viability, T/C [34] 40%
119 nM: IC50 (second compound 0.1 µM)
126 nM: IC50 (second compound 10 µM)
206 nM: IC50 (second compound 1 µM)
